Results reported in US6525032B2, “Purine derivatives” (Pfizer Inc, priority 2000, dated 2003).
pIC50: −log10 of the molar value.

Tested on: neutrophils activated by fMLP
Experiment: superoxide production from human neutrophils activated by fMLP (cytochrome C reduction)
Type: cell-based
Settings: Neutrophil; fMLP-induced superoxide production, neutrophils from human peripheral blood, cytochalasin B priming, adenosine deaminase present; read-out: IC50 (concentration giving 50% inhibition compared to the control response to fMLP)
Description: This is evaluated by determining the compound profile in an assay where superoxide production was measured from neutrophils activated by fMLP. Neutrophils were isolated from human peripheral blood using dextran sedimentation followed by centrifugation through Ficoll-Hypaque solution. Any contaminating erythrocytes in the granulocyte pellet were removed by lysis with ice-cold distilled water. Superoxide production from the neutrophils was induced by fMLP in the presence of a priming concentration of cytochalasin B. Adenosine deaminase was included in the assay to remove any endogenously produced adenosine that might suppress superoxide production. The effect of the compound on the fMLP-induced response was monitored colorometrically from the reduction of cytochrome C within the assay buffer. The potency of the compounds was assessed by the concentration giving 50% inhibition (IC50) compared to the control response to fMLP.

A pIC50 of over 7.40 was found for `CCNC(=O)[C@H]1O[C@@H](n2cnc3c(NCC(c4ccccc4)c4ccccc4)nc(C(=O)NCCCNC(C)C)nc32)[C@H](O)[C@@H]1O` [Example 16, 6-[(2,2-diphenylethyl)amino]-9-{(2R,3R,4S,5S)-5-[(ethylamino)carbonyl]-3,4-dihydroxytetrahydro-2-furanyl}-N-[3-(isopropylamino)propyl]-9H-purine-2-carboxamide] in this work.
A pIC50 of over 7.40 was found for `CCNC(=O)[C@H]1O[C@@H](n2cnc3c(NCC(c4ccccc4)c4ccccc4)nc(C(=O)NCCN4CCC(C)CC4)nc32)[C@H](O)[C@@H]1O` [Example 31, 6-[(2,2-diphenylethyl)amino]-9-{(2R,3R,4S,5S)-5-[(ethylamino)carbonyl]-3,4-dihydroxytetrahydro-2-furanyl}-N-[2-(4-methyl-1-piperidinyl)ethyl]-9H-purine-2-carboxamide] in this work.
A pIC50 of over 7.40 was found for `CCNC(=O)[C@H]1O[C@@H](n2cnc3c(NC(CC)CC)nc(C(=O)NCCN4CCCCC4)nc32)[C@H](O)[C@@H]1O` [Example 10, 9-{(2R,3R,4S, 5S)-5-[(ethylamino)carbonyl]-3,4-dihydroxytetrahydro-2-furanyl}-6-[(1-ethylpropyl)amino]-N-[2-(1-piperidinyl)ethyl]-9H-purine-2-carboxamide] in this work.
A pIC50 of over 7.40 was found for `CCNC(=O)[C@H]1O[C@@H](n2cnc3c(NCC4c5ccccc5-c5ccccc54)nc(C(=O)NCCN4CCCCC4)nc32)[C@H](O)[C@@H]1O` [Example 20, 9-{(2R,3R,4S,5S)-5-[(ethylamino)carbonyl]-3,4-dihydroxytetrahydro-2-furanyl}-6-[(9H-fluoren-9-ylmethyl)amino]-N-[2-(1-piperidinyl)ethyl]-9H-purine-2-carboxamide] in this work.
A pIC50 of over 7.40 was found for `CCNC(=O)[C@H]1O[C@@H](n2cnc3c(NCC(c4ccccc4)c4ccccc4)nc(C(=O)NCCN4CCC(C(C)C)CC4)nc32)[C@H](O)[C@@H]1O` [Example 12, 6-[(2,2-diphenylethyl)amino]-9-{(2R,3R,4S,5S)-5-[(ethylamino)carbonyl]-3,4-dihydroxytetrahydro-2-furanyl}-N-[2-(4-isopropyl-1-piperidinyl)ethyl]-9H-purine-2-carboxamide] in this work.
A pIC50 of over 7.40 was found for `CCNC(=O)[C@H]1O[C@@H](n2cnc3c(NCC(c4ccccc4)c4ccccc4)nc(C(=O)NCCCN4CCCC4)nc32)[C@H](O)[C@@H]1O` [Example 7, 6-[(2,2-diphenylethyl)amino]-9-{(2R,3R,4S,5S)-5-[(ethylamino)carbonyl]-3,4-dihydroxytetrahydro-2-furanyl}-N-[3-(1-pyrrolidinyl)propyl]-9H-purine-2-carboxamide] in this work.
A pIC50 of over 7.40 was found for `CCNC(=O)[C@H]1O[C@@H](n2cnc3c(NCC(c4ccccc4)c4ccccc4)nc(C(=O)NCCCN(CC)CC)nc32)[C@H](O)[C@@H]1O` [Example 21, N-[3-(diethylamino)propyl]-6-[(2,2-diphenylethyl)amino]-9-{(2R,3R,4S,5S)-5-[(ethylamino)carbonyl]-3,4-dihydroxytetrahydro-2-furanyl}-9H-purine-2-carboxamide] in this work.
A pIC50 of over 7.40 was found for `CCNC(=O)[C@H]1O[C@@H](n2cnc3c(NCC(c4ccccc4)c4ccccc4)nc(C(=O)NCCCN(C)C)nc32)[C@H](O)[C@@H]1O` [Example 27, N-[3-(dimethylamino)propyl]-6-[(2,2-diphenylethyl)amino]-9-{(2R,3R,4S,5S)-5-[(ethylamino)carbonyl]-3,4-dihydroxytetrahydro-2-furanyl}-9H-purine-2-carboxamide] in this work.
